Key:
[1] = tested on: A549 non-small-cell lung cancer cells; assay: MTT antiproliferative assay, A549; format: cell-based; conditions: Homo sapiens, Table 2, 48 h, read-out: GI50 in vitro values, A549
Method: (§1) To evaluate antiproliferative properties of the compounds of Formula I, mitochondrial dehydrogenase activities were measured using the MTT assay. The cell lines were prepared by trypsinizing and seeding […] cells per well into microplates. All compounds were reconstituted in dimethyl sulfoxide (DMSO) at a concentration of either 100 mM or 25 mM prior to treatment. The cells were grown for 24 hrs before treatment at concentrations ranging from 0.004 to 100 microM and incubated for 48 hrs in 200 microL media. 20 microL of MTT reagent in serum free medium (5 mg/mL) was added to each well and incubated further for 2 hrs. Media was removed and the resulting formazan crystals were re-solubilized in 100 microL of DMSO and the optical density (OD) was measured using a Thermomax Molecular Device plate reader at a wavelength of 490 nm. The experiments were performed in quadruplicate and repeated at least twice for each compound per cell line. Cells treated with 0.1% DMSO were used as a negative control, while phenyl arsine oxide (PAO) was used as a positive killing control.
(§2) Human cancer cell lines were obtained from the American Type Culture Collection (ATCC, Manassas, Va., USA), the European Collection of Cell Culture (ECACC, Salisbury, UK) and the Deutsche Sammlung von Mikroorganismen and Zellkulturen (DSMZ, Braunschweig, Germany). Human cervical adenocarcinoma HeLa cells were cultured in DMEM supplemented with 10% fetal bovine serum (FBS). Human mammary carcinoma MCF-7 cells were cultured in RPMI supplemented with 10% FBS. The U87 and U373 cells were cultured in DMEM culture medium (Lonza code 12-136F, Vervier, Belgium), while the SKMEL-28 and A549 cells were cultured in RPMI culture medium (Lonza; code 12-115F) supplemented with 10% heat-inactivated FBS (Lonza, FBS South America code DE14-801F). […] All cell lines were cultured in T25 flasks, maintained and grown at 37° C., 95% humidity, 5% CO2.
(§3) To evaluate antiproliferative properties of the synthesized compounds, the MTT assay was used. The cell lines were assessed by trypsinizing each cell line and seeding 4×10^3 cells per well into 96-well plates. All compounds were dissolved in DMSO at a concentration of either 100 mM or 50 mM prior to cell treatment. The cells were grown for 24 h and then treated with compounds at concentrations ranging from 0.04 to 100 μM and incubated for 48 h in 200 μL media. 20 μL of MTT reagent in serum free medium (5 mg/mL) was added to each well and incubated further for 2 h. Media was removed, and the resulting formazan crystals were re-solubilized in 200 μL of DMSO. A490 was measured using a Thermomax Molecular Device plate reader. The experiments were performed in quadruplicate and repeated at least twice for each compound per cell line. Cells treated with 0.1% DMSO were used as a control, and 1 μM phenyl arsine oxide (PAO) was used as a positive killing control.

U373 glioblastoma cells = assay: MTT antiproliferative assay, U373; format: cell-based, human; conditions: Homo sapiens, U373 MG; Table 2; 48 h, MTT; read-out: GI50 in vitro values, U373
Method: as §1, §2
as §3, with “Cells treated with 0.1% DMSO were used as a control, and 1 μM phenyl arsine oxide (PAO) was used as a positive killing control.” left out

HeLa cells = assay: Flow cytometric cell cycle analysis (Vybrant Orange); format: cell-based, human; conditions: 24 h
Method: To assess the effects of the analogues on the cell cycle, cell cycle analysis was performed. 70-80% confluent HeLa cells were trypsinized and seeded at an initial density of 2×10^5 cell per well into 6 well plates in DMEM supplemented with 10% FBS, 100 mg/L penicillin G and 100 mg/L streptomycin. The cells were allowed to adhere overnight and before treatment with compounds of Formula I at concentrations ranging from 0.1 to 10 microM. After 24 hrs, the cells were washed 3× with DMEM, trypsinized, pelleted, and re-suspended in 200 microL of culture medium containing 10 microM (2 microL/mL) vybrant orange dye. The samples in the labeling solution were transferred into Falcon tubes and incubated in a water bath for 30 mins at 37° C. The samples were then analyzed using a Becton Dickinson FACscan flow cytometer with CellQuest software. A 488 nm laser was utilized using parameters that can be found in Appendix B; 10,000 events were collected for analysis. Cells treated with 0.1% DMSO were used as a negative control and cells treated with colchicine were used as a positive control.
In further anticancer evaluation of compounds of Formula I cell cycle analysis was performed using the cell permeable DNA binding dye Vybrant Orange. In a normal population, cells are distributed among the three major phases of the cell cycle, G0/G1 in which there is one set of paired chromosomes per cell (2n), followed by the S or synthesis phase in which DNA is synthesized in preparation for division (there is a variable amount of DNA present during this phase) and finally G2/M phase in which the chromosomes of each cell have now been duplicated (4n). This DNA content can be measured using fluorescent DNA selective probes such as Vybrant Orange that produce signals that are proportional to DNA mass per cell. This dye interacts with double stranded DNA (dsDNA) in living cells and becomes fluorescent upon binding and thus can be used to track DNA content as cells progress through the various phases of the cell cycle using flow cytometry. Cell cycle analysis was performed on HeLa cells using Rig8 at various concentrations above and below the respective GI50. Since colchicine is a known antimitotic drug, it was utilized as a positive control, while HeLa cells treated with 0.1% DMSO were used as a negative control. FIG. 6 illustrates the results of this analysis using Rig 8 on HeLa cells.

B16F10 melanoma cells = assay: MTT antiproliferative assay, B16F10; format: cell-based; conditions: Mus musculus, B16-F10, Table 2, 48 h, read-out: GI50 in vitro values, B16F10
Method: as §1

## O=C(c1ccccc1)c1[nH]c2[nH]cnc(=O)c2c1-c1cc(Br)cc(Br)c1 [Rig8, 6-Benzoyl-5-(3,5-dibromophenyl)-1H-pyrrolo[2,3-d]pyrimidin-4(7H)-one]
[1]
  GI50: 30 nM
U373 glioblastoma cells
  GI50: 30 nM
HeLa cells; 0.1 μM
  % Relative DNA Content, G0/G1: 51.5 ± 4.3%
  % Relative DNA Content, G2/M: 36.6 ± 4.6%
  % Relative DNA Content, S: 14.1 ± 3.9%
HeLa cells; 1 μM
  % Relative DNA Content, G0/G1: 12.7 ± 2.2%
  % Relative DNA Content, G2/M: 73.4 ± 5.3%
  % Relative DNA Content, S: 9.7 ± 2.4%
HeLa cells; 10 μM
  % Relative DNA Content, G0/G1: 5.6 ± 2.2%
  % Relative DNA Content, G2/M: 85.9 ± 2.1%
  % Relative DNA Content, S: 5.3 ± 2.4%
HeLa cells; 0.1-10 μM
  cell cycle arrest (in words): dose-dependent cell cycle arrest in the G2/M phase
B16F10 melanoma cells
  GI50: 50 nM
